Data reported in US20260242335A1, “HETEROCYCLOALKYL BETA-HYDROXY ALKYL AMINES FOR USE IN THE TREATMENT OF HYPERGLYCAEMIA AND DISORDERS CHARACTERISED BY HYPERGLYCAEMIA” (ATROGI AB, priority 2023, published 2026).
Structures can show the parent of a compound that is named as a salt.

Columns and labels:
L6-myotubes [1] = assay: Measurement of intracellular cAMP levels (alpha screen cAMP kit) in differentiated cells, compared to isoproterenol; assay type: cell-based; settings: 0.25 h, compound at 10 μM vs isoproterenol at 10 μM, 15 min stimulation, read-out: Biological example 2: intracellular cAMP level activity compared to that of isoproterenol
Procedure, shortened: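 Rat L6 myoblasts differentiated to myotubes over 7 days in 2% FBS, serum-starved overnight, then stimulated 15 min with agonist at 1×10^−5 M final in HBSS with 1 mM IBMX, pH 7.4. cAMP measured by AlphaScreen after ethanol extraction and lysis; activity expressed relative to isoproterenol.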

L6-myotubes [2] = assay: Glucose uptake (3H-2-deoxyglucose) in differentiated L6-myotubes, compared to isoproterenol; assay type: cell-based; settings: compound at 10 μM vs isoproterenol at 10 μM, read-out: Biological example 1: glucose uptake activity compared to that of isoproterenol
Procedure, shortened: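 Differentiated L6 myotubes, serum-starved overnight in 0.5% fatty-acid-free BSA, were pretreated 1 h 40 min with agonist at 1×10^−5 M final, then re-dosed in glucose-free medium for 20 min. Uptake of 50 nM 3H-2-deoxyglucose over 10 min was read by scintillation counting and compared with isoproterenol.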

CC(C)(C[C@@H]1CCCN(S(C)(=O)=O)C1)NC[C@H](O)c1cccc(F)c1 [Example 4, (R)-1-(3-Fluorophenyl)-2-((2-methyl-1-((S)-1-(methylsulfonyl)-piperidin-3-yl)propan-2-yl)amino)ethan-1-ol hydrochloride] gave an Emax at 10 µM (L6-myotubes [1]) of 25 to 50% and an Emax at 10 µM (L6-myotubes [2]) of 50 to 75%.

COC(=O)N1CCC(CC(C)(C)NC[C@H](O)c2cccc(F)c2)CC1 [Example 43, Methyl (R)-4-(2-((2-(3-fluorophenyl)-2-hydroxyethyl)amino)-2-methyl-propyl)piperidine-1-carboxylate] was tested, and the Emax at 10 µM (L6-myotubes [1]) was under 25% and the Emax at 10 µM (L6-myotubes [2]) was 50 to 75%.

CC(C)(C[C@@H]1CCCN(C(=O)OC(C)(C)C)C1)NC[C@H](O)c1cccc(F)c1 [Example 1, tert-Butyl (S)-3-(2-(((R)-2-(3-fluorophenyl)-2-hydroxyethyl)amino)-2-methypropyl)piperidine-1-carboxylate acetate] was tested, and the Emax at 10 µM (L6-myotubes [1]) was over 75% and the Emax at 10 µM (L6-myotubes [2]) was over 75%.

In the case of CC(=O)N1CCC(CC(C)(C)NC[C@H](O)c2cncc(F)c2)CC1 [Example 34, (R)-1-(4-(2-((2-(5-fluoropyridin-3-yl)-2-hydroxyethyl)amino)-2-methylpropyl)piperidin-1-yl)ethan-1-one dihydrochloride], the Emax at 10 µM (L6-myotubes [1]) is reported as under 25% and the Emax at 10 µM (L6-myotubes [2]) is reported as 50 to 75%.
